These results are taken from ChEMBL document CHEMBL1146545, “Ainigmaptilones, sesquiterpenes from the Antarctic gorgonian coral Ainigmaptilon antarcticus” (J Nat Prod, 2003).

The structures appear in SMILES notation. Activity calls are given as the source filed them. The rule behind the calls is not given here.

The subject of this test is Antarctic bacterium. Briefly: Antimicrobial activity against Antarctic bacteria at 5 mg/mL. Type of test: functional, organism-based.

Take `C=C(C)[C@@H]1CC[C@]2(CO)C=CC(=O)[C@@H](C)[C@H]2C1`: the result was Active.
